Columns and labels:
[1] = target: Human immunodeficiency virus type 1 protease (Human immunodeficiency virus 1) (UniProt Q72874); test: Percent inhibition against human immunodeficiency virus 1 protease; parameters: concentration or dose not given beside the values; conditions: concentration not given here
[2] = target: Human immunodeficiency virus type 1 protease (Human immunodeficiency virus 1) (UniProt Q72874); test: Catalytic constant against human immunodeficiency virus typeI protease
[3] = target: Human immunodeficiency virus type 1 protease (Human immunodeficiency virus 1) (UniProt Q72874); test: Inhibitory activity against human immunodeficiency virus type I protease
[4] = target: Human immunodeficiency virus type 1 protease (Human immunodeficiency virus 1, UniProt Q72874); test: Inhibition constant against human immunodeficiency virus 1 protease
[5] = target: Human immunodeficiency virus type 1 protease (Human immunodeficiency virus 1) (UniProt Q72874); test: Ratio of Michaelis-Menten constant and catalytic constant against human immunodeficiency virus type I protease
[6] = target: Human immunodeficiency virus type 1 protease (Human immunodeficiency virus 1) (UniProt Q72874); test: Inhibitory activity against human immunodeficiency virus typeI protease

| Structure (SMILES) | inhibition [1] [%] | other results |
| --- | --- | --- |
| CC1CC(=O)N1C(C(=O)NCc1ccccc1)c1ccccc1 (configuration not stated) | 67 | – |
| O=C(NCc1ccccc1)C(Cc1ccccc1)N1CCC1=O (configuration not stated) | 65 | – |
| COC(=O)CNC(=O)C(Cc1ccccc1)N1C(=O)CC1C(=O)OCc1ccccc1 (configuration not stated) | 67 | – |
| CC1CN(C(C(=O)NCC2N=Cc3cncnc32)c2ccccc2)C1=O (configuration not stated) | 76 | – |
| CCCCNC(=O)C(CCC)N1C(=O)CC1c1ccccc1 (configuration not stated) | 93 | – |
| CC1CN(C(Cc2ccccc2)C(=O)NCC2CCCCC2)C1=O (configuration not stated) | 76 | – |
| O=C(NCC1N=Cc2cncnc21)C(c1ccccc1)N1CCC1=O (configuration not stated) | 68 | – |
| CC(C)CNC(=O)C(Cc1ccccc1)N1CC(C)C1=O (configuration not stated) | 72 | – |
| CC1CC(=O)N1C(C(=O)NCC1CCCCC1)c1ccccc1 (configuration not stated) | 83 | – |
| CCCCNC(=O)C(Cc1ccccc1)N1CC(C)C1=O (configuration not stated) | 78 | – |
| CCCC(C(=O)NCC1N=Cc2cncnc21)N1C(=O)CC1C(=O)OCc1ccccc1 (configuration not stated) | 83 | – |
| O=C(OCc1ccccc1)C1CC(=O)N1C(C(=O)NCC1N=Cc2cncnc21)c1ccccc1 (configuration not stated) | 97 | K cat [2]: 0.126 s⁻¹; inhibition [3]: 60 µM; Ki [4]: 60.3 µM; Ratio [5]: 0.151 mM⁻¹ s⁻¹ |
| COC(=O)CNC(=O)[C@H](c1ccccc1)N1C[C@H](C)C1=O | 63 | – |
| CCC[C@@H](C(=O)NCC(=O)OC)N1C(=O)CC1C(=O)N[C@@H](Cc1ccccc1)C(=O)OC (some centres not stated) | 103 | – |
| O=C(NCC1CCCCC1)C(Cc1ccccc1)N1CC(O)C1=O (configuration not stated) | 66 | – |
| CCCCNC(=O)C(c1ccccc1)N1C(=O)CC1c1ccccc1 (configuration not stated) | 63 | – |
| CC(C)CNC(=O)C(Cc1ccccc1)N1CCC1=O (configuration not stated) | 65 | – |
| CC1CC(=O)N1C(Cc1ccccc1)C(=O)NCC1CCCCC1 (configuration not stated) | 71 | – |
| COC(=O)CNC(=O)C(c1ccccc1)N1C(=O)CC1C(=O)OCc1ccccc1 (configuration not stated) | 97 | K cat [2]: 0.144 s⁻¹; inhibition [6]: 1000 µM; Ki [4]: 1140 µM; Ratio [5]: 0.157 mM⁻¹ s⁻¹ |
| O=C(NCC1N=Cc2cncnc21)C(c1ccccc1)N1C(=O)CC1c1ccccc1 (configuration not stated) | 78 | – |

| Structure (SMILES) | inhibition [1] [%] | other results |
| --- | --- | --- |
| COC(=O)CNC(=O)[C@H](c1ccccc1)N1CCC1=O | 70 | – |
| CCCC(C(=O)NCC1CCCCC1)N1C(=O)CC1C(=O)NC(Cc1ccccc1)C(=O)OC (configuration not stated) | 71 | – |
| CCCC(C(=O)NCC1N=Cc2cncnc21)N1CCC1=O (configuration not stated) | 74 | – |
| O=C(NCc1ccccc1)C(c1ccccc1)N1C(=O)CC1c1ccccc1 (configuration not stated) | 75 | – |
| COC(=O)C(Cc1ccccc1)NC(=O)C1CC(=O)N1C(Cc1ccccc1)C(=O)NCC(C)C (configuration not stated) | 68 | – |
| COC(=O)CNC(=O)[C@H](Cc1ccccc1)N1C(=O)C[C@H]1C(=O)N[C@@H](Cc1ccccc1)C(=O)OC | 69 | – |
| CC1CC(=O)N1C(Cc1ccccc1)C(=O)NCC1C=Nc2cncnc21 (configuration not stated) | 62 | – |
| CC1CN(C(C(=O)NCc2ccccc2)c2ccccc2)C1=O (configuration not stated) | 86 | – |
| CCC[C@@H](C(=O)NCC(=O)OC)N1C(=O)C[C@H]1c1ccccc1 | 68 | – |
| O=C(NCC1CCCCC1)C(c1ccccc1)N1CCC1=O (configuration not stated) | 79 | – |
| CC1CN(C(Cc2ccccc2)C(=O)NCC2N=Cc3cncnc32)C1=O (configuration not stated) | 71 | – |
| O=C(OCc1ccccc1)C1CC(=O)N1C(C(=O)NCc1ccccc1)c1ccccc1 (configuration not stated) | 119 | – |
| CCCCNC(=O)C(c1ccccc1)N1C(=O)CC1C(=O)NC(Cc1ccccc1)C(=O)OC (configuration not stated) | 86 | – |
| COC(=O)C(Cc1ccccc1)NC(=O)C1CC(=O)N1C(C(=O)NCC(C)C)c1ccccc1 (configuration not stated) | 71 | – |
| CCCCNC(=O)C(c1ccccc1)N1C(=O)CC1C(=O)OCc1ccccc1 (configuration not stated) | 71 | – |
| CC1C(=O)N(C(C(=O)NCC2CCCCC2)c2ccccc2)C1C(=O)OCc1ccccc1 (configuration not stated) | 92 | – |
| CCCCNC(=O)C(Cc1ccccc1)N1C(=O)CC1c1ccccc1 (configuration not stated) | 74 | – |
| O=C(NCC1N=Cc2cncnc21)C(Cc1ccccc1)N1C(=O)CC1C(=O)OCc1ccccc1 (configuration not stated) | 66 | – |
| CCCC(C(=O)NCC(=O)OC)N1C(=O)C(C)C1C(=O)OCc1ccccc1 (configuration not stated) | 87 | – |
| COC(=O)C(Cc1ccccc1)NC(=O)C1C(O)C(=O)N1C(C(=O)NCC1N=Cc2cncnc21)c1ccccc1 (configuration not stated) | 97 | K cat [2]: 0.1 s⁻¹; inhibition [3]: 80 µM; Ki [4]: 63.2 µM; Ratio [5]: 0.155 mM⁻¹ s⁻¹ |

Source: ChEMBL document CHEMBL1139628, “Beta-lactam compounds as apparently uncompetitive inhibitors of HIV-1 protease” (Bioorg Med Chem Lett, 2005)
